≈ marks a conversion by molar mass, not a printed value. Like-named read-outs stand apart in the source and are kept apart here.
Experiments:
[1] = tested on: HepG2 cells; test: HepG2 cytotoxicity screening (CellTiter 96); type: cell-based, human; conditions: for IC50: Homo sapiens, HepG2, 24 h, 24 h incubation, CellTiter 96, * above highest tested concentration, ** limited by insolubility in medium; for SI: SI = IC50 (µM) HepG2 / MICH37Ra (µM)
[2] = tested on: Mycobacterium tuberculosis H37Ra ITM-M006710 (ATCC 9431); test: Antimycobacterial MIC, microdilution broth / Alamar Blue (resazurin); type: cell-based; conditions: Mycobacterium tuberculosis
[3] = tested on: M. smegmatis DSM 43465 (ATCC 607); test: Antimycobacterial MIC, microdilution broth / resazurin; type: cell-based; conditions: Mycolicibacterium smegmatis; resazurin after 48 h; read-out: MIC M. smegmatis
[4] = tested on: M. aurum DSM 43999 (ATCC 23366); test: as above; type: cell-based; conditions: Mycolicibacterium aurum, read-out: MIC M. aurum
[5] = Kinetic water solubility (water-induced precipitation of DMSO stock, UHPLC); type: physicochemical; conditions: for solubility: water (DMSO stock diluted with water), 18 °C, kinetic from dmso stock
Text: A low value of log P is often presumed to be related to increased water solubility, although this might not always be the case since log P is a measure of relative solubility of the compound in the lipophilic and hydrophilic solvents (at equilibrium). Therefore, to be sure, we tested whether the lowered log k’w (related to log P) of the oxazole derivatives would also translate to increased solubility in water in a few representative derivatives. The water solubility of selected compounds was assessed by the kinetic method based on water-induced precipitation of DMSO stock solutions of tested compounds due to reasons described by Azzali and colleagues.
Water solubility was investigated using the kinetic solubility method. The sample (1 mg) was dissolved in the smallest amount of DMSO needed, 25 or 50 μL for subtype I and subtype II compounds, respectively. The samples were mixed at 18 °C in a thermomixer (Thermomixer comfort, Eppendorf, Hamburg, Germany) for 1 h. After mixing, the samples were diluted with water to a concentration of 500 μM, and the precipitate was observed. The sample was filtered through a 0.22 μm filter and diluted to be evaluated by UHPLC. The log S parameter was calculated from the experimental solubility in molar concentration. The samples were measured using the same instrument, software, and column as used in the purity evaluation.

[6] = tested on: Staphylococcus aureus subsp. aureus CCM 4223 (ATCC 29213); test: Antibacterial microdilution broth (EUCAST); type: cell-based; conditions: Staphylococcus aureus; 24h incubation; read-out: MIC SA
[7] = tested on: Staphylococcus aureus subsp. aureus (MRSA) CCM 4750 (ATCC 43300); test: Antibacterial microdilution broth (EUCAST); type: cell-based; conditions: Staphylococcus aureus; 24h incubation; read-out: MIC MRSA
[8] = tested on: Staphylococcus epidermidis CCM 4418 (ATCC 12228); test: Antibacterial microdilution broth (EUCAST); type: cell-based; conditions: Staphylococcus epidermidis; 24h incubation; read-out: MIC SE
[9] = tested on: Enterococcus faecalis CCM 4224 (ATCC 29212); test: Antibacterial microdilution broth (EUCAST); type: cell-based; conditions: Enterococcus faecalis; 24h incubation; read-out: MIC EF
[10] = tested on: Escherichia coli CCM 3954 (ATCC 25922); test: Antibacterial microdilution broth (EUCAST); type: cell-based; conditions: Escherichia coli; 24h incubation; read-out: MIC EC
[11] = tested on: Acinetobacter baumannii DSM 30007 (ATCC 19606); test: Antibacterial microdilution broth (EUCAST); type: cell-based; conditions: Acinetobacter baumannii; 24h incubation; read-out: MIC AB
[12] = tested on: Pseudomonas aeruginosa CCM 3955 (ATCC 27853); test: Antibacterial microdilution broth (EUCAST); type: cell-based; conditions: Pseudomonas aeruginosa; 72h incubation; read-out: MIC PA
[13] = tested on: Candida albicans CCM 8320 (ATCC 24433); test: Antifungal microdilution broth (EUCAST); conditions: Candida albicans, 24 h, read-out: MIC CA
[14] = tested on: Candida krusei CCM 8271 (ATCC 6258); test: Antifungal microdilution broth (EUCAST); conditions: Pichia kudriavzevii, 24 h, read-out: MIC CK
[15] = tested on: Candida parapsilosis CCM 8260 (ATCC 22019); test: Antifungal microdilution broth (EUCAST); conditions: Lodderomyces parapsilosis, 24 h, read-out: MIC CP
[16] = tested on: Candida tropicalis CCM 8264 (ATCC 750); test: Antifungal microdilution broth (EUCAST); conditions: Candida tropicalis, 24 h, read-out: MIC CT
[17] = tested on: Aspergillus fumigatus ATCC 204305; test: Antifungal microdilution broth (EUCAST); conditions: Aspergillus fumigatus, ATCC204305, 24 h, read-out: MIC AF
[18] = tested on: Aspergillus flavus CCM 8363; test: Antifungal microdilution broth (EUCAST); conditions: Aspergillus flavus, CCM8363, 24 h, read-out: MIC AFla
[19] = tested on: Lichtheimia corymbifera CCM 8077; test: Antifungal microdilution broth (EUCAST); conditions: Lichtheimia corymbifera, CCM8077, 24 h, read-out: MIC LC
[20] = tested on: Trichophyton interdigitale CCM 8377 (ATCC 9533); test: Antifungal microdilution broth (EUCAST); conditions: Trichophyton interdigitale, 72 h, read-out: MIC TI
[21] = RP-UHPLC lipophilicity parameter log k’w; type: physicochemical; conditions: for log k’w: RP-UHPLC, acetonitrile/water, log k extrapolated to 0% acetonitrile; for logkw: experimental lipophilicity parameter
In short: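 log k’w from isocratic RP-UHPLC with an acetonitrile/water mobile phase, using 40, 45 and 50% acetonitrile for subtype I and 20, 30 and 40% for subtype II. A single run was made at each mobile-phase composition.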

[22] = tested on: M. avium DSM 44156 (ATCC 25291); test: Antimycobacterial MIC, microdilution broth / resazurin; type: cell-based, Mycobacterium avium; conditions: Mycobacterium avium; resazurin after 96 h; read-out: MIC M. avium
[23] = tested on: M. kansasii DSM 44162 (ATCC 12478); test: as above; type: cell-based; conditions: Mycobacterium kansasii, read-out: MIC M. kansasii
[24] = tested on: Mtb laboratory ID IZAK; type: cell-based, Mycobacterium tuberculosis; conditions: MDR strain IZAK, CLSI breakpoints 2020
[25] = tested on: Mtb laboratory ID MATI; type: cell-based, Mycobacterium tuberculosis; conditions: MDR strain MATI, CLSI breakpoints 2021
[26] = 120 h, Middlebrook 7H9, resazurin after 120 h, read-out: Mtb H37Ra MIC
[27] = calculated from experimentally measured water solubility in molar concentration, read-out: Exp. log S (converted)
[28] = water, kinetic method, DMSO stock diluted to 500 μM, read-out: Solubility
[29] = recalculated from µg/mL, read-out: MICH37Ra

Structure (SMILES) | IC50 [1] [µM] | MIC [2, 26] [µg/mL] | MIC [3] [µg/mL] | MIC ([4]; resazurin after 72 h) [µg/mL] | MIC [6] [µM] | MIC [7] [µM] | MIC [8] [µM] | MIC [9] [µM] | MIC [10] [µM] | MIC [11] [µM] | MIC [12] [µM] | MIC [13] [µM] | MIC [14] [µM] | MIC [15] [µM] | MIC [16] [µM] | MIC [17] [µM] | MIC [18] [µM] | MIC [19] [µM] | MIC [20] [µM] | log k’w [21] | also measured
O=C(Nc1nccs1)c1cccnc1 [Compound 2a] | > 1000 | 250 | ≥ 500 | 250 (≈ 1220 µM) | > 500 | > 500 | > 500 | > 500 | > 500 | > 500 | > 500 | > 500 | > 500 | > 500 | > 500 | > 500 | > 500 | > 500 | > 500 | – | logS_exp [5]: -1.202
O=C(Nc1ncco1)c1cccnc1 [Compound 2b] | > 1000 | 31.2 | 62.5 (≈ 330 µM) | 15.6 (≈ 82.6 µM) | 250 (≈ 47.3 µg/mL) | 500 (≈ 94.6 µg/mL) | 500 (≈ 94.6 µg/mL) | > 500 | > 500 | > 500 | > 500 | 500 (≈ 94.6 µg/mL) | 500 (≈ 94.6 µg/mL) | 250 (≈ 47.3 µg/mL) | > 500 | > 500 | > 500 | > 500 | 125 (≈ 23.6 µg/mL) | 0.436 | logkw [21]: 0.4358; logS_exp ([5]; experimental log S): -0.9171; melting point: 155 to 160 °C
O=C(Nc1nccs1)c1ccnc(Cl)c1 [Compound 6a] | > 250 | ≥ 500 | ≥ 500 | ≥ 500 | > 500 | > 500 | > 500 | > 500 | > 500 | > 500 | > 500 | > 500 | > 500 | > 500 | > 500 | > 500 | > 500 | > 500 | > 500 | 2.013 | logkw [21]: 2.013; MIC [22]: ≥ 500 µg/mL; MIC ([23]; resazurin after 96 h): ≥ 500 µg/mL; solubility [5, 27]: 126 µM; solubility [5, 28]: 29.9 µg/mL; melting point: 152 to 154 °C
O=C(Nc1nc(-c2ccccc2)cs1)c1cccnc1 [Compound 12a] | > 25 | ≥ 500 | ≥ 500 | ≥ 500 | > 125 | > 125 | > 125 | > 125 | > 125 | > 125 | > 125 | > 125 | > 125 | > 125 | > 125 | > 125 | > 125 | > 125 | > 125 | 2.131 | logkw [21]: 2.131; MIC [22]: ≥ 500 µg/mL; MIC ([23]; resazurin after 96 h): ≥ 500 µg/mL; logS_exp ([5]; experimental log S): -3.188; solubility [5, 27]: 1 µM; solubility [5, 28]: 0.28 µg/mL
O=C(Nc1nc(-c2ccccc2)co1)c1cccnc1 [Compound 12b] | 610 | 125 | 500 (≈ 1880 µM) | 250 (≈ 942 µM) | 500 (≈ 133 µg/mL) | > 500 | 62.5 (≈ 16.6 µg/mL) | > 500 | > 500 | > 500 | > 500 | > 500 | > 500 | > 500 | > 500 | > 500 | > 500 | > 500 | > 500 | 1.118 | logkw [21]: 1.118; logS_exp ([5]; experimental log S): -2.228; solubility [5, 27]: 437 µM; solubility [5, 28]: 116 µg/mL
O=C(Nc1nc(-c2ccccc2)cs1)c1ccnc(Cl)c1 [Compound 15a] | 103 | 3.91 | 15.6 (≈ 49.5 µM) | 31.2 (≈ 99 µM) | > 500 | > 500 | > 500 | > 500 | > 500 | > 500 | > 500 | > 125 | > 125 | > 125 | > 125 | > 125 | > 125 | > 125 | > 125 | 3.036 | logkw [21]: 3.036; SI [1]: 8.3; MIC [2, 29]: 12.4 µM; MIC [22]: 15.6 µg/mL (≈ 49.5 µM); MIC ([23]; 96 h): < 3.91 µg/mL; solubility [5, 27]: 6.61 µM; solubility [5, 28]: 2.1 µg/mL; melting point: 158 to 162 °C
O=C(Nc1nc(-c2ccccc2)co1)c1ccnc(Cl)c1 [Compound 15b] | 136 | 7.81 | 31.2 (≈ 104 µM) | – | 62.5 (≈ 18.7 µg/mL) | 62.5 (≈ 18.7 µg/mL) | 250 (≈ 74.9 µg/mL) | 250 (≈ 74.9 µg/mL) | > 500 | 500 (≈ 150 µg/mL) | > 500 | 500 (≈ 150 µg/mL) | 500 (≈ 150 µg/mL) | 500 (≈ 150 µg/mL) | 500 (≈ 150 µg/mL) | > 500 | > 500 | > 500 | 500 (≈ 150 µg/mL) | 1.992 | logkw [21]: 1.992; SI [1]: 5.2; MIC [2, 29]: 26.1 µM; MIC ([4]; 72 h): 7.81 µg/mL (≈ 26.1 µM); MIC [22]: 15.6 µg/mL (≈ 52.1 µM); MIC ([23]; resazurin after 96 h): 15.6 µg/mL (≈ 52.1 µM); solubility [5, 27]: 417 µM; solubility [5, 28]: 124 µg/mL
NC(=O)c1cnccn1 [PZA, pyrazinamide] | – | – | – | – | – | – | – | – | – | – | – | – | – | – | – | – | – | – | – | – | Concentration (susceptibility profile) [24]: > 16 µg/mL; Susceptibility [24]: resistant; Concentration (susceptibility profile) [25]: > 128 µg/mL; Susceptibility [25]: resistant
[H]/N=C(/N)N[C@H]1[C@H](O)[C@@H](O)[C@H](O[C@@H]2O[C@@H](C)[C@](O)(C=O)[C@H]2O[C@@H]2O[C@@H](CO)[C@H](O)[C@@H](O)[C@@H]2NC)[C@@H](N/C(N)=N\[H])[C@@H]1O [STM, streptomycin] | – | – | – | – | – | – | – | – | – | – | – | – | – | – | – | – | – | – | – | – | Concentration (susceptibility profile) [24]: 4 µg/mL; Susceptibility [24]: resistant; Concentration (susceptibility profile) [25]: > 16 µg/mL; Susceptibility [25]: resistant

From paper PMC9143880, “Improving Antimicrobial Activity and Physico-Chemical Properties by Isosteric Replacement of 2-Aminothiazole with 2-Aminooxazole” (Pharmaceuticals, 2022)
